Reference: patent US20260144882A1, “ANTI-NECTIN-4 ANTIBODY DRUG CONJUGATE AND USE THEREOF” (Bio-Thera Solutions, Ltd., priority 2022, published 2026)
Where “and” joins values, the source holds several entries; their conditions need not be identical. Identical values can stand only once.

Experiments:
mouse mNectin-4 protein = target: T1, mouse mNectin-4 protein (Mus musculus, UniProt Q8R007); test: Species specificity ELISA, mouse Nectin-4; assay type: binding; details: in words
T1 construct: purchased ACRO NE4-M52H3
T1 sequence (Q8R007 31-508): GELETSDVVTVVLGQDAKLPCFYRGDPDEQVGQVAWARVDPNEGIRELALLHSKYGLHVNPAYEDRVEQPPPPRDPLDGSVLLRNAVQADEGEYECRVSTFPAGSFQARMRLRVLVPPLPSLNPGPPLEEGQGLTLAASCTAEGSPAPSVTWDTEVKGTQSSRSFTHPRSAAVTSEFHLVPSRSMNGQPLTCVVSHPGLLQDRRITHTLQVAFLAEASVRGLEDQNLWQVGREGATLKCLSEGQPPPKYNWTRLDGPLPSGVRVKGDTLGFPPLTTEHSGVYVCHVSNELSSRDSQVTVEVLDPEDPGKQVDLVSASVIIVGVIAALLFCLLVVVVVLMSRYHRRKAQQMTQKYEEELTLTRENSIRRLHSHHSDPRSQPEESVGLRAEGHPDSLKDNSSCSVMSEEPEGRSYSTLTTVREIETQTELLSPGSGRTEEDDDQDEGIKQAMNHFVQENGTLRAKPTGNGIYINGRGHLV
Description: The binding of different antibodies to different species of Nectin-4 proteins was detected by ELISA. hNectin-4-His, monkey cNectin-4 protein (ACRO, NE4-C52H4) and mouse mNectin-4 protein (ACRO, NE4-M52H3) were immobilized; antibodies ASG-22, 1F3, 1G8, 3A10, and 10F4 were serially diluted, and HRP-labeled anti-human-Kappa secondary antibody was added for chromogenic reaction.

[1] = target: T2, hNectin-4-His (human Nectin-4 extracellular antigen) (Homo sapiens, UniProt Q96NY8); test: SPR (BIAcore) affinity assay; assay type: binding
T2 construct: made in house
T2 sequence (Q96NY8 with tags, fused parts or gaps): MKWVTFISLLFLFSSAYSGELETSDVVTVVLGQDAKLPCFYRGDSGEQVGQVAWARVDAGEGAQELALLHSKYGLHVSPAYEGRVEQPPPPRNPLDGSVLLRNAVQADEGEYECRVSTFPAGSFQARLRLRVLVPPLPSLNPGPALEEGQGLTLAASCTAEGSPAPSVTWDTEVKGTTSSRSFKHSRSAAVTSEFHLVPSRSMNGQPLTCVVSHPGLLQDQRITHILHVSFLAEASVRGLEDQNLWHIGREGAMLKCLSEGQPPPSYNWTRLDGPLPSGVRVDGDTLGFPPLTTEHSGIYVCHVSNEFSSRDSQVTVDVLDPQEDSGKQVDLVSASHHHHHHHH
Description: In this study, the affinity of the antibodies for the human Nectin-4 extracellular antigen was detected by surface plasmon resonance (SPR) technique (BIAcore: GE Healthcare, T200).
Capture was performed using a Protein A chip (Cat #29127556, GE Healthcare), and 5 µg/mL antibody dilutions (in HBS-EP+(10×): GE Healthcare, Cat #BR-1006-69, with a working concentration of 1×) were directed through the experimental flow channels (Fc2 and Fc4) at a flow rate of 10 μL/min for 10 s; then, the flow rate was adjusted to 30 μL/min, the hNectin-4-His dilutions at different concentrations (0 nM, 1.23 nM, 3.7 nM, 11.1 nM, 33.3 nM, and 100 nM) were sequentially added, and simultaneously directed through the surfaces of the experimental flow channels (Fc2 and Fc4) and reference flow channels (Fc1 and Fc3) with an association time of 120 s and a dissociation time of 180 s, and finally, the chip was regenerated in Glycine 1.5.

T-47D cells = test: Endocytosis efficiency assay by FACS; assay type: cell-based, human
Description: In this assay, the relative amount of antibodies remaining on the cell surface after co-incubation at 37° C. for a certain period of time was detected by FACS to reflect the endocytosis efficiency. The procedures are briefly described as follows: T-47D cells (human ductal breast cancer cells, derived from the Cell Bank of Chinese Academy of Sciences, Cat.No. TCHu 87); the antibodies of interest were adjusted to 10 µg/mL and co-incubated with the cells on ice for 1 h; the cells were washed 3 times with pre-cooled PBS, and then placed at 37° C. and incubated for 0 h, 2 h and 4 h; 0.2% N3Na was added to stop the endocytosis reaction; the cells were washed with PBS thrice, followed by the addition of the PE-labeled anti-human Fc secondary antibody (Invitrogen 12-4998-82); the cells were incubated at 4° C. for 30 min; the red fluorescence signal was detected on a flow cytometer.

- binding to mouse Nectin-4 (mouse mNectin-4 protein): weak binding
- Ka ([1]; Table 12, association rate): 723000 M⁻¹ s⁻¹
- Kd ([1]; Table 12, dissociation rate): 0.00436 s⁻¹
- ka ([1]; Table 13): 577000 M⁻¹ s⁻¹ and 540000 M⁻¹ s⁻¹
- kd ([1]; Table 13): 0.00581 s⁻¹ and 0.0059 s⁻¹
Substance: ASG-22: reference antibody; heavy chain SEQ ID NO: 5, light chain SEQ ID NO: 6 [reference compound]
- Endocytosis rate at 2 h (T-47D cells; Table 14): 49.8%
- Endocytosis rate at 4 h (T-47D cells; Table 14): 74.1%
- MFI (mean fluorescence intensity) 2 h (T-47D cells; Table 14, 37° C.): 53739.06
- MFI (mean fluorescence intensity) 4 h (T-47D cells; Table 14, 37° C.): 27694.23
- Endocytosis rate at 2 h (T-47D cells; Table 15): 35.2%
- Endocytosis rate at 4 h (T-47D cells; Table 15): 35.4%
- MFI (mean fluorescence intensity) 0 h (T-47D cells; Table 15, 37° C., 0 h): 58,591.2
- MFI (mean fluorescence intensity) 2 h (T-47D cells; Table 15, 37° C.): 37,973.0
- MFI (mean fluorescence intensity) 4 h (T-47D cells; Table 15, 37° C.): 37,844.0
